3 compounds from patent US10144713B1, “Bis-cyclic guanidines as antibacterial agents” (UNIVERSITY OF SOUTH FLORIDA, priority 2017, dated 2018) can be followed below.

Structures are written as SMILES. Where two headings read alike, the source gives them in different places. A value given as a limit tells only on which side of the number the result lay.

The term MIC denotes the lowest concentration found to suppress growth.

Data set [1] has as its system six bacteria strains (K. pneumoniae, P. aeruginosa, E. coli, VRE, MRSA, MRSE). The data set can be described thus: Antimicrobial activity on the panel of six bacteria strains. Format: cell-based. Here is the method: (§1) Minimum Inhibitory Concentrations (MICs) Against Bacteria.
(§2) The antimicrobial activity of the compounds was tested on the following six bacteria strains: K. pneumoniae (ATCC 13383), P. aeruginosa (ATCC27853), E. coli (ATCC 25922), vancomycin-resistant Enterococcus faecalis(ATCC 700802), Methicillin-resistant S. aureus (MRSA, ATCC 33591), Methicillin-resistant S. epidermidis (MRSE, RP62A). The procedures were followed as reported previously (Hancock et al., Immunobiology 2006, 211, 315-322). Briefly, a single colony of each bacterium was inoculated in 3 mL TSB medium and incubated overnight at 37° C. Then the bacteria culture was diluted at 1:100 and the bacteria were allowed to grow to mid-logarithmic phase. Next, 50 μL of 2-fold serial dilutions of compounds (0.1-25 μg/mL) were added the 96-well plate containing aliquots of 50 μL of bacteria suspension (1×10^6 CFU/mL) in each well. The mixture was incubated at 37° C. for 16 h, and their absorption at 600 nm wavelength was read on a Biotek Synergy HT microtiter plate reader. […] The experiments were repeated at least three times with duplicates each time. HC50 means the concentration causing 50% hemolysis.

Data set [2] deals with human red blood cells (hRBCs). Put plainly: Hemolytic assay. The format is cell-based. The settings on record: for Hemolysis (HC50): concentration causing 50% hemolysis, hRBCs, 37° C., 1 h. The protocol:
The freshly drawn, K2EDTA treated human red blood cells (hRBCs) were washed with 1×PBS buffer, and centrifuged at 3500 rpm for 10 min. The step was repeated until the supernatant became clear. The supernatant was removed, and the RBCs were diluted into 5% v/v suspension. 50 μL of the suspension was incubated with 50 μL of compounds of different concentrations at 37° C. for 1 h. The mixture was centrifuged at 3500 rpm for 10 min. Subsequently, to 30 μL of the supernatant 100 μL PBS was added, and the absorbance of the mixture at 540 nm was read on a Biotek Synergy HT plate reader. The positive control was 2% Triton X-100, and the negative control was 1×PBS alone. The hemolysis activity was calculated by the formula % hemolysis=(Abssample−AbsPBS)/(AbsTriton−AbsPBS)×100%. The experiment was repeated at least three times with duplicates each time.

Another data set relates to E. coli (ATCC 25922). The data set can be described thus: MIC against E. coli. Format: cell-based. To be noted: Escherichia coli, ATCC25922; Gram −; 16 h, 37° C. Here is the method:
as §1, §2

Data set [3] deals with Methicillin-resistant S. aureus (MRSA, ATCC 33591). The data set can be described thus: MIC against MRSA. Format: cell-based. The settings on record: Staphylococcus aureus; Gram +; 16 h, 37° C. The protocol: as §1, §2
In data set [4] the test system is vancomycin-resistant Enterococcus faecalis (ATCC 700802). Put plainly: MIC against VRE. Format: cell-based. To be noted: Gram +; 16 h, 37° C. Here is the method: as §1, §2
Data set [5] deals with Methicillin-resistant S. epidermidis (MRSE, RP62A). The data set can be described thus: MIC against MRSE. Format: cell-based. The settings on record: Staphylococcus epidermidis, MRSE; Gram +; 16 h, 37° C. Here is the method: as §1, §2
The test system of data set [6] is P. aeruginosa (ATCC27853). The data set can be described thus: MIC against P. aeruginosa. Format: cell-based. The settings on record: Pseudomonas aeruginosa, ATCC27853; Gram −; 16 h, 37° C. Here is the method: as §1, §2
Data set [7] deals with K. pneumoniae (ATCC 13383). Put plainly: MIC against K. pneumoniae. Format: cell-based. To be noted: Klebsiella pneumoniae, ATCC13383; Gram −; 16 h, 37° C. The protocol: as §1, §2
In another data set the test system is S. aureus ATCC 33591. The data set can be described thus: Thigh burden infection model in neutropenic mice. To be noted: 5 mg/kg i.v. at 1 and 7 h after infection, thighs harvested at 25 h. The format is in vivo, CD-1 female mice. The protocol:
Neutropenic mice (n=4 per group) were inoculated in the posterior thigh muscles with S. aureus ATCC 33591 at 1×10^6 CFU per thigh and then treated with compounds 11 and 12 (5 mg/kg per dose) by i.v. bolus injection in the tail vein at 1 and 7 h after infection.
A thigh burden model was employed to evaluate the in vivo anti-infective activity of compounds 11 and 12, in which the thigh muscle of neutropenic mice was inoculated with S. aureus, followed by intravenous (i.v.) administration of corresponding compounds. All protocols and methods associated with animal experiments were approved by University of South Florida (USF) Institutional Animal Care and Use Committee. The in vivo experiment on the mouse model of the thigh burden infection with MRSA was conducted adapted from previously reported protocol. The CD-1 female mice which were 6 to 8 weeks old and around 25 g in weights were used for the study. Neutropenic Mice were induced by injecting cyclophosphamide (150 mg/kg) intraperitoneally twice at 4 and 1 days before bacterial inoculation. One MRSA colony from tryptic soy agar (TSA) cultures was allowed to grow in tryptic soy broth (TSB) overnight at 37° C., then 100 μL culture was withdrawn and diluted with TSB to a total volume of 4 mL, which was subsequently incubated at 37° C. for another 6 h. […] The formed colonies were counted to calculate CFU per thigh.

In another data set the test system is E. coli. Put plainly: Time-kill study. Format: cell-based. Here is the method:
The killing activity was monitored for the first 2 h. The concentrations for compound 11 were 2×MIC, 4×MIC, and 8×MIC, respectively.
Time-kill studies were conducted to investigate the bacterial killing kinetics of compounds 11 and 12 by using E. Coli. Briefly, the bacteria […] grew to mid-logarithmic phase in TSB medium, from which the suspension (10^6 CFU/ml) was made. The suspension was incubated with different concentrations of 11 or 12 for 10 min, 30 min, 1 h and 2 h respectively. The mixtures were diluted by 10^2 to 10^4 fold and spread on TSB agar plates. After incubation at 37° C. overnight, the colonies on the plates were counted and plotted against the incubation time. […] Cell colonies were counted in agar plates at 12.5, 25, and 50 μg/mL. Compound 11 at the concentration of 12.5 or 25 μg/mL completely removed all bacteria in 2 hours, and at 50 μg/mL it completely removed bacteria in 0.5 hour. Compound 12 killed E. Coli completely in 0.5 hour at the concentration of 12.5 μg/mL.

Setting [8] is: read-out: MIC against Gram-positive bacteria.
Where [9] appears, read: read-out: MIC for Gram-negative bacteria (except for P. aeruginosa).

Turning to `N=C1N(CC(=O)Nc2cccc(NC(=O)CN3C[C@H](Cc4ccccc4)N(CCCc4ccccc4)C3=N)c2)C[C@H](Cc2ccccc2)N1CCCc1ccccc1` [Compound 6], the MIC in [1] (setting [8]) is < 3 µg/mL; in data set [1] (setting [9]) it was < 3 µg/mL; with E. coli (ATCC 25922), 3 to 6 µg/mL; in data set [3] it was 1.5 to 3 µg/mL; in data set [4] it was 1.5 µg/mL; in data set [5], 1.5 µg/mL. The values for the minimum inhibitory concentration (MIC) in data set [6] and in [7] were 12 to 25 µg/mL and 3 µg/mL, respectively. For the same compound, in data set [2], the “Hemolysis (HC50)” value was >250 µg/mL.

For the compound `CCCCCCN1C(=N)N(CC(=O)Nc2ccc(NC(=O)CN3C[C@H](Cc4ccccc4)N(CCCCCC)C3=N)cc2)C[C@@H]1Cc1ccccc1` [Compound 11], the “antibacterial activity against the tested bacteria (in words)” value in data set [1] was “potent and broad-spectrum activity”. Besides, the “selectivity, hemolytic activity against MIC values of MRSA” value in [2] is given as 769 folds. The MIC with E. coli (ATCC 25922) was determined as 1.5 µg/mL; in data set [3] it was 0.33 µg/mL; in data set [4], 0.75 µg/mL; in [5], 0.75 µg/mL; in data set [6], 6 µg/mL; in data set [7] it was 1.5 µg/mL. Further, in the data set with S. aureus ATCC 33591, the “decrease in colony-forming unit (CFU) per thigh” value stood at 3 log10 CFU. The “time to completely remove all bacteria” value with E. coli (12.5 μg/mL) was determined as 2 h; with E. coli (25 μg/mL), 2 h; in the data set with E. coli (50 μg/mL), 0.5 h.

On to `N=C1N(CC(=O)Nc2ccc(NC(=O)CN3C[C@H](Cc4ccccc4)N(CCCc4ccccc4)C3=N)cc2)C[C@H](Cc2ccccc2)N1CCCc1ccccc1` [Compound 5], for which the MIC in data set [1] (setting [8]) was < 3 µg/mL; in data set [1] (setting [9]), < 3 µg/mL; in the data set with E. coli (ATCC 25922), 1.5 to 3 µg/mL; in [3], 0.33 µg/mL; in data set [4], 0.75 µg/mL; in data set [5], 0.75 µg/mL. In addition, the MIC in data set [6] was in the range of 12 to 25 µg/mL; in [7] it was 1.5 to 3 µg/mL. Further, the “Hemolysis (HC50)” value in data set [2] was 140 µg/mL.
